# From ChEMBL document CHEMBL3352058, “Inhibition of microbial β-N-acetylhexosaminidases by 4-deoxy- and galacto-analogues of NAG-thiazoline” (Bioorg Med Chem Lett, 2014)
# Experiments:
# [1] = Inhibition of Talaromyces flavus beta-N-acetylhexosaminidase GH20 using p-nitrophenyl 2-acetamido-2-deoxy-beta-D-glucosaminide substrate at pH 7.0 and 25 degC
# [2] = Inhibition of Streptomyces plicatus beta-N-acetylhexosaminidase GH20 using p-nitrophenyl 2-acetamido-2-deoxy-beta-D-glucosaminide substrate at pH 7.0 and 25 degC
# [3] = Inhibition of Bacteroides thetaiotaomicron beta-N-acetylglucosaminidase GH84 using p-nitrophenyl 2-acetamido-2-deoxy-beta-D-glucosaminide substrate at pH 7.0 and 25 degC
Ki [1],Ki [2],Ki [3],Structure (SMILES)
42.7 µM,24 µM,0.029 µM,CC1=N[C@@H]2[C@@H](O)[C@H](O)[C@@H](CO)O[C@@H]2S1
1890 µM,9900 µM,1830 µM,CC1=N[C@H]2[C@H](O[C@H](CO)C[C@@H]2O)S1
393 µM,90.8 µM,–,CC1=N[C@@H]2[C@@H](O)[C@@H](O)[C@@H](CO)O[C@@H]2S1
